Measured values: US20200270309A1, “MALEIMIDE GROUP-MODIFIED ANGIOGENESIS INHIBITOR HM-1 AND USE THEREOF” (NANJING ANJI BIOLOGICAL TECHNOLOGY CO., LTD, priority 2017, published 2020)
Read-outs that look alike come from different tables or passages of the source. Ends that are not written are not given here. Peptide text beside a SMILES is read from it. * marks the point of attachment. Mal(CH2CH2O)6CH2CH2CO = O=C1C=CC(=O)N1CCOCCOCCOCCOCCOCCOCCC(=O)*; X18 = O=C1C=CC(=O)N1CCOCCOCCOCCOCCOCCOCCCCCCCC(=O)*; X22 = O=C1C=CC(=O)N1CCOCCOCCOCCOCCOCCOCCCCCC(=O)*; X7 = O=C1C=CC(=O)N1CCOCCOCCOCCOCCOCCOCCCCCCC(=O)*; X23 = O=C1C=CC(=O)N1CCOCCOCCOCCOCCOCCOCCCCC(=O)*; X14 = O=C1C=CC(=O)N1CCOCCOCCOCCOCCOCCCCCCC(=O)*; X29 = O=C1C=CC(=O)N1CCOCCOCCOCCOCCOCCOCCCC(=O)*; X9 = O=C1C=CC(=O)N1CCOCCOCCOCCOCCOCCCCCCCC(=O)*; X11 = O=C1C=CC(=O)N1CCOCCOCCOCCOCCOCCCCCC(=O)*; X26 = O=C1C=CC(=O)N1CCOCCOCCOCCOCCOCCCCC(=O)*; X5 = O=C1C=CC(=O)N1CCOCCOCCOCCOCCOCCOCC(=O)*

Test: Half-lives and pharmacokinetic parameters of polypeptides vs HM-1
Details: in vivo

AUC(0-inf) [ng·h/mL] | MRT inf [h] | clearance [mL/min/kg] | half-life (T1/2β (half-life)) [h] | AUC(0-inf) (read-out: AUC0-∞) [ng·h/mL] | clearance (read-out: CL (converted)) [mL/min/kg] | MRT inf (read-out: MRT0-∞) [h] | half-life (read-out: T1/2β (half-life) (converted)) [h] | half-life (read-out: half-life (converted)) [h] | Molecule
33100 ± 8520 | 59.1 ± 10.4 | 0.505 | 40.97 ± 0.26 | – | – | – | – | – | C[C@H](NC(=O)CNC(=O)[C@H](CCCNC(=N)N)NC(=O)CCOCCOCCOCCOCCOCCOCCN1C(=O)C=CC1=O)C(=O)N[C@@H](CC(=O)O)C(=O)N[C@@H](CCCNC(=N)N)C(=O)N[C@@H](C)C(=O)NCC(=O)NCC(=O)NCC(=O)NCC(=O)N[C@@H](CCCNC(=N)N)C(=O)NCC(=O)N[C@@H](CC(=O)O)C(=O)O [X85] ({Mal(CH2CH2O)6CH2CH2CO}-RGADRAGGGGRGD-OH)
25800 ± 8050 | 46.2 ± 10.2 | 0.645 | 32.03 ± 0.31 | – | – | – | – | – | C[C@H](NC(=O)CNC(=O)[C@H](CCCNC(=N)N)NC(=O)CCCOCCOCCOCCOCCOCCOCCN1C(=O)C=CC1=O)C(=O)N[C@@H](CC(=O)O)C(=O)N[C@@H](CCCNC(=N)N)C(=O)N[C@@H](C)C(=O)NCC(=O)NCC(=O)NCC(=O)NCC(=O)N[C@@H](CCCNC(=N)N)C(=O)NCC(=O)N[C@@H](CC(=O)O)C(=O)O [X86] (X29-RGADRAGGGGRGD-OH)
33400 ± 8450 | 59.8 ± 10.6 | 0.498 | 41.42 ± 0.31 | – | – | – | – | – | C[C@H](NC(=O)CNC(=O)[C@H](CCCNC(=N)N)NC(=O)CCCCOCCOCCOCCOCCOCCOCCN1C(=O)C=CC1=O)C(=O)N[C@@H](CC(=O)O)C(=O)N[C@@H](CCCNC(=N)N)C(=O)N[C@@H](C)C(=O)NCC(=O)NCC(=O)NCC(=O)NCC(=O)N[C@@H](CCCNC(=N)N)C(=O)NCC(=O)N[C@@H](CC(=O)O)C(=O)O [X87] (X23-RGADRAGGGGRGD-OH)
31800 ± 7130 | 56.9 ± 10.1 | 0.523 | 39.45 ± 0.33 | – | – | – | – | – | C[C@H](NC(=O)CNC(=O)[C@H](CCCNC(=N)N)NC(=O)CCCCCOCCOCCOCCOCCOCCOCCN1C(=O)C=CC1=O)C(=O)N[C@@H](CC(=O)O)C(=O)N[C@@H](CCCNC(=N)N)C(=O)N[C@@H](C)C(=O)NCC(=O)NCC(=O)NCC(=O)NCC(=O)N[C@@H](CCCNC(=N)N)C(=O)NCC(=O)N[C@@H](CC(=O)O)C(=O)O [X88] (X22-RGADRAGGGGRGD-OH)
33100 ± 7150 | 59.1 ± 11.8 | 0.505 | 40.95 ± 0.27 | – | – | – | – | – | C[C@H](NC(=O)CNC(=O)[C@H](CCCNC(=N)N)NC(=O)CCCCCCOCCOCCOCCOCCOCCOCCN1C(=O)C=CC1=O)C(=O)N[C@@H](CC(=O)O)C(=O)N[C@@H](CCCNC(=N)N)C(=O)N[C@@H](C)C(=O)NCC(=O)NCC(=O)NCC(=O)NCC(=O)N[C@@H](CCCNC(=N)N)C(=O)NCC(=O)N[C@@H](CC(=O)O)C(=O)O [X89] (X7-RGADRAGGGGRGD-OH)
27600 ± 8160 | 49.3 ± 11.5 | 0.605 | 34.18 ± 0.31 | – | – | – | – | – | C[C@H](NC(=O)CNC(=O)[C@H](CCCNC(=N)N)NC(=O)CCCCCCCOCCOCCOCCOCCOCCOCCN1C(=O)C=CC1=O)C(=O)N[C@@H](CC(=O)O)C(=O)N[C@@H](CCCNC(=N)N)C(=O)N[C@@H](C)C(=O)NCC(=O)NCC(=O)NCC(=O)NCC(=O)N[C@@H](CCCNC(=N)N)C(=O)NCC(=O)N[C@@H](CC(=O)O)C(=O)O [X90] (X18-RGADRAGGGGRGD-OH)

The next lines start with the molecule.

Molecule | AUC(0-inf) [ng·h/mL] | MRT inf [h] | clearance [mL/min/kg] | half-life (T1/2β (half-life)) [h] | AUC(0-inf) (read-out: AUC0-∞) [ng·h/mL] | clearance (read-out: CL (converted)) [mL/min/kg] | MRT inf (read-out: MRT0-∞) [h] | half-life (read-out: T1/2β (half-life) (converted)) [h] | half-life (read-out: half-life (converted)) [h]
C[C@H](NC(=O)CNC(=O)[C@H](CCCNC(=N)N)NC(=O)CCCCOCCOCCOCCOCCOCCN1C(=O)C=CC1=O)C(=O)N[C@@H](CC(=O)O)C(=O)N[C@@H](CCCNC(=N)N)C(=O)N[C@@H](C)C(=O)NCC(=O)NCC(=O)NCC(=O)NCC(=O)N[C@@H](CCCNC(=N)N)C(=O)NCC(=O)N[C@@H](CC(=O)O)C(=O)O [X80] (X26-RGADRAGGGGRGD-OH) | 34500 ± 7330 | 61.6 ± 11.7 | 0.483 | 42.72 ± 0.25 | – | – | – | – | –
C[C@H](NC(=O)CNC(=O)[C@H](CCCNC(=N)N)NC(=O)CCCCCOCCOCCOCCOCCOCCN1C(=O)C=CC1=O)C(=O)N[C@@H](CC(=O)O)C(=O)N[C@@H](CCCNC(=N)N)C(=O)N[C@@H](C)C(=O)NCC(=O)NCC(=O)NCC(=O)NCC(=O)N[C@@H](CCCNC(=N)N)C(=O)NCC(=O)N[C@@H](CC(=O)O)C(=O)O [X81] (X11-RGADRAGGGGRGD-OH) | 30700 ± 8170 | 54.9 ± 11.5 | 0.543 | 38.06 ± 0.28 | – | – | – | – | –
C[C@H](NC(=O)CNC(=O)[C@H](CCCNC(=N)N)NC(=O)CCCCCCOCCOCCOCCOCCOCCN1C(=O)C=CC1=O)C(=O)N[C@@H](CC(=O)O)C(=O)N[C@@H](CCCNC(=N)N)C(=O)N[C@@H](C)C(=O)NCC(=O)NCC(=O)NCC(=O)NCC(=O)N[C@@H](CCCNC(=N)N)C(=O)NCC(=O)N[C@@H](CC(=O)O)C(=O)O [X82] (X14-RGADRAGGGGRGD-OH) | 25700 ± 7220 | 46 ± 13.6 | 0.648 | 31.9 ± 0.35 | – | – | – | – | –
C[C@H](NC(=O)CNC(=O)[C@H](CCCNC(=N)N)NC(=O)CCCCCCCOCCOCCOCCOCCOCCN1C(=O)C=CC1=O)C(=O)N[C@@H](CC(=O)O)C(=O)N[C@@H](CCCNC(=N)N)C(=O)N[C@@H](C)C(=O)NCC(=O)NCC(=O)NCC(=O)NCC(=O)N[C@@H](CCCNC(=N)N)C(=O)NCC(=O)N[C@@H](CC(=O)O)C(=O)O [X83] (X9-RGADRAGGGGRGD-OH) | 29200 ± 7640 | 52.3 ± 11.7 | 0.57 | 36.23 ± 0.28 | – | – | – | – | –
C[C@H](NC(=O)CNC(=O)[C@H](CCCNC(=N)N)NC(=O)COCCOCCOCCOCCOCCOCCN1C(=O)C=CC1=O)C(=O)N[C@@H](CC(=O)O)C(=O)N[C@@H](CCCNC(=N)N)C(=O)N[C@@H](C)C(=O)NCC(=O)NCC(=O)NCC(=O)NCC(=O)N[C@@H](CCCNC(=N)N)C(=O)NCC(=O)N[C@@H](CC(=O)O)C(=O)O [X84] (X5-RGADRAGGGGRGD-OH) | 29100 ± 8230 | 52.1 ± 10.3 | 0.573 | 36.09 ± 0.28 | – | – | – | – | –
H-RGADRAGGGGRGD [HM-1, Arg-Gly-Ala-Asp-Arg-Ala-Gly-Gly-Gly-Gly-Arg-Gly-Asp] | – | – | – | – | 32800 ± 8410 | 24.8 | 0.068 ± 0.012 | 0.35 ± 0.14 | 0.34
